Patent US9447136B2, “Semisynthetic derivatives of Nystatin A1” (BLIRT S.A., priority 2012, dated 2016)
≈ marks a conversion by molar mass, not a printed value. Read-outs that look alike come from different tables or passages of the source.

Key:
LLC-PK1 = assay: Cytotoxic activity against mammalian cells in tissue culture (MTT); type: cell-based, pig
Outline: (§1)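 Cells at 1.2×10^4/well were exposed to serial 2× DMSO dilutions for 120 h at 37 °C: CCRF-CEM in RPMI 1640 + 10% FBS, HepG2 in MEM + 10% FBS, LLC-PK1 in Medium 199 + 3% FBS. MTT was added for 4 h and A540 read. IC50 is the concentration halving A540 versus DMSO control.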

Human erythrocytes = assay: Hemotoxicity (hemolytic activity)
Outline: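 Human erythrocytes in saline (2×10^7/ml) were incubated with serially diluted compound at 37 °C for 30 min, then centrifuged. Released hemoglobin was read as A540 against 0.1% Triton X-100 as full hemolysis. EH50 is the interpolated concentration giving 50% of the control A540.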

[1] = tested on: Candida glabrata DSM 11226; assay: Antifungal activity in vitro, serial dilution in RPMI 1640; type: cell-based; conditions: Table 2A; RPMI 1640, pH 7.0
Outline: (§2)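 Broth serial dilution per M27-A2 in buffered RPMI 1640, pH 7.0. Growth read as optical density at 531 nm; IC50 interpolated as concentration giving 50% of control A531, MIC as lowest concentration giving at most 20% of control A531.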

[2] = tested on: Trichoderma viride LOCK E159; assay: as above; type: cell-based; conditions: Table 2B
Outline: as §2

[3] = tested on: Candida dubliniensis CBS 7987; assay: as above; type: cell-based; conditions: Table 2B
Outline: as §2

[4] = tested on: Candida tropicalis KKP 334; assay: as above; type: cell-based; conditions: Table 2A; RPMI 1640, pH 7.0
Outline: as §2

[5] = tested on: Aspergillus niger LOCK E201; assay: as above; type: cell-based; conditions: Table 2B
Outline: as §2

[6] = tested on: Candida stellatoidea CBS 1905; assay: as above; type: cell-based; conditions: Table 2B
Outline: as §2

[7] = tested on: Candida pseudotropicalis KKP 324; assay: as above; type: cell-based; conditions: Table 2B
Outline: as §2

[8] = tested on: Candida parapsilosis DSM 5784; assay: as above; type: cell-based; conditions: Table 2B
Outline: as §2

[9] = tested on: Saccharomyces cerevisiae ATCC 9763; assay: as above; type: cell-based; conditions: for Antifungal activity Saccharomyces cerevisiae ATCC 9763 MIC: Table 2A, RPMI 1640, pH 7.0, A531 at most 20% of control; for MIC Saccharomyces cerevisiae ATCC 9763: Table 2B
Outline: as §2

[10] = tested on: Candida lipolytica KKP 322; assay: as above; type: cell-based; conditions: Table 2B
Outline: as §2

Candida krusei DSM 6128 = assay: as above; type: cell-based; conditions: Table 2A; RPMI 1640, pH 7.0
Outline: as §2

[11] = tested on: Candida quilliermondii DSM 11947; assay: as above; type: cell-based; conditions: Table 2B
Outline: as §2

[12] = tested on: Candida albicans ATCC 10231; assay: as above; type: cell-based; conditions: for Antifungal activity Candida albicans ATCC 10231 IC50 / Antifungal activity Candida albicans ATCC 10231 MIC: Table 2A, RPMI 1640, pH 7.0; for Antifungal activity Candida albicans ATCC 10231 IC50: A531 50% of control; for Antifungal activity Candida albicans ATCC 10231 MIC: A531 at most 20% of control; for MIC Candida albicans ATCC 10231: Table 2B
Outline: as §2

Candida arborea KKP 319 = assay: as above; type: cell-based; conditions: Table 2B
Outline: as §2

Candida albicans B3 = assay: Antifungal activity towards resistant (MDR) strains; type: cell-based; conditions: fluconazole sensitive, parent strain for B4
Protocol: (§3) The determination of antifungal activity was performed by the serial dilutions method in buffered RPMI 1640 medium, in a 96-wells microplates, according to the standard procedure (National Committee for Clinical Laboratory Standards. Reference method for broth dilution antifungal susceptibility testing of yeast, approved standard, 2nd ed. M27-A2 vol. 22 Wayne, Pa., 2002). The optical density of cells suspension was measured using a microplates reader (Victor^3, Perkin-Elmer) at the wavelength λ=660 nm (A660). On the basis of received results the diagrams on interrelation between the A660 value and the concentration of tested compound were made. From these graphs MIC values were read, that are the concentrations of tested compounds, in the presence at which A660 value is at most 20% of A660 value measured in control sample.

Candida albicans STY31 = assay: as above; type: cell-based; conditions: 5674 mutant derivative, deletion of CDR1 and CDR2
Protocol: as §3

Candida albicans STY7 = assay: as above; type: cell-based; conditions: 5674 mutant derivative, deletion of CDR2
Protocol: as §3

Candida albicans Gu4 = assay: as above; type: cell-based; conditions: fluconazole sensitive, parent strain for Gu5
Protocol: as §3

Candida albicans 5674 = assay: as above; type: cell-based; conditions: C. albicans 5674 overexpressing CDR1 and CDR2
Protocol: as §3

Candida albicans F5 = assay: as above; type: cell-based; conditions: fluconazole-resistant due to the overexpression of CaMDR1 and ERG11
Protocol: as §3

Candida albicans STY19 = assay: as above; type: cell-based; conditions: 5674 mutant derivative, deletion of CDR1
Protocol: as §3

Candida albicans F2 = assay: as above; type: cell-based; conditions: fluconazole sensitive, parent strain for F5
Protocol: as §3

Candida albicans B4 = assay: as above; type: cell-based; conditions: fluconazole-resistant due to the overexpression of CaMDR1
Protocol: as §3

Candida albicans Gu5 = assay: as above; type: cell-based; conditions: fluconazole-resistant due to the overexpression of CDR1 and CDR2
Protocol: as §3

HepG2 = assay: Cytotoxic activity against mammalian cells in tissue culture (MTT); type: cell-based, human
Outline: as §1

CCRF-CEM = assay: as above; type: cell-based, human
Outline: as §1

Row | Molecule | Antifungal activity Candida glabrata DSM 11226 MIC [1] | MIC Trichoderma viride LOCK E159 [2] | MIC Candida dubliniensis CBS 7987 [3] | Antifungal activity Candida tropicalis KKP 334 MIC [4] | MIC Aspergillus niger LOCK E201 [5] | MIC Candida stellatoidea CBS 1905 [6] | MIC Candida pseudotropicalis KKP 324 [7] | MIC Candida parapsilosis DSM 5784 [8] | Antifungal activity Saccharomyces cerevisiae ATCC 9763 MIC [9] | MIC Saccharomyces cerevisiae ATCC 9763 [9] | MIC Candida lipolytica KKP 322 [10] | Antifungal activity Candida krusei DSM 6128 MIC (Candida krusei DSM 6128) | MIC Candida quilliermondii DSM 11947 [11] | Antifungal activity Candida albicans ATCC 10231 IC50 [12] | Antifungal activity Candida albicans ATCC 10231 MIC [12] | MIC Candida albicans ATCC 10231 [12] | MIC Candida arborea KKP 319 (Candida arborea KKP 319) | MIC Candida albicans B3 (Candida albicans B3) | MIC Candida albicans STY31 (Candida albicans STY31) | MIC Candida albicans STY7 (Candida albicans STY7) | further results
1 | CCCN(CCC)[C@@H]1[C@H](O)[C@H](O[C@H]2/C=C/C=C/C=C/C=C/CC/C=C/C=C/[C@H](C)[C@@H](O)[C@@H](C)[C@H](C)OC(=O)C[C@H](O)C[C@H](O)C[C@H](O)CC[C@@H](O)[C@H](O)C[C@]3(O)C[C@H](O)[C@@H](C(=O)O)[C@H](C2)O3)O[C@H](C)[C@H]1O [Compound N22, N,N-di-n-propylnystatin A1] | 4 µg/mL | 8 µg/mL (≈ 7.92 µM) | 2 µg/mL (≈ 1.98 µM) | 4 µg/mL | 8 µg/mL (≈ 7.92 µM) | 4 µg/mL (≈ 3.96 µM) | 4 µg/mL (≈ 3.96 µM) | 8 µg/mL (≈ 7.92 µM) | 2 µg/mL | 2 µg/mL (≈ 1.98 µM) | 4 µg/mL (≈ 3.96 µM) | 8 µg/mL | 8 µg/mL (≈ 7.92 µM) | 3.14 µg/mL | 4 µg/mL | 4 µg/mL (≈ 3.96 µM) | 8 µg/mL (≈ 7.92 µM) | 8 µg/mL (≈ 7.92 µM) | 4 µg/mL (≈ 3.96 µM) | 4 µg/mL (≈ 3.96 µM) | Cytotoxicity IC50 LLC-PK1 (LLC-PK1): >100 µg/mL; EH10 (Human erythrocytes): 202.34 µg/mL; MIC Candida albicans Gu4 (Candida albicans Gu4): 8 µg/mL (≈ 7.92 µM); MIC Candida albicans 5674 (Candida albicans 5674): 4 µg/mL (≈ 3.96 µM); MIC Candida albicans F5 (Candida albicans F5): 4 µg/mL (≈ 3.96 µM); MIC Candida albicans STY19 (Candida albicans STY19): 4 µg/mL (≈ 3.96 µM); MIC Candida albicans F2 (Candida albicans F2): 4 µg/mL (≈ 3.96 µM); MIC Candida albicans B4 (Candida albicans B4): 8 µg/mL (≈ 7.92 µM); MIC Candida albicans Gu5 (Candida albicans Gu5): 8 µg/mL (≈ 7.92 µM); Cytotoxicity IC50 HepG2 (HepG2): 82.9 ± 19.87 µg/mL; Cytotoxicity IC50 CCRF-CEM (CCRF-CEM): >100 µg/mL
2 | N-fructosyl-N-methylnystatin A1 [Compound N28] | 16 µg/mL | 16 µg/mL | 8 µg/mL | 8 µg/mL | 16 µg/mL | 8 µg/mL | 8 µg/mL | 16 µg/mL | 4 µg/mL | 4 µg/mL | 8 µg/mL | 16 µg/mL | 16 µg/mL | 5.80 µg/mL | 8 µg/mL | 8 µg/mL | 32 µg/mL | 8 µg/mL | 16 µg/mL | 16 µg/mL | Cytotoxicity IC50 LLC-PK1 (LLC-PK1; LLC-PK1, 120 h, MTT): >100 µg/mL; Hemotoxicity BEH50 (Human erythrocytes; human erythrocytes, 37° C., 30 minutes, concentration causing 50% hemolysis, maximum concentration 300 μg/ml): >250 µg/mL; % of hemolysis at the concentration 60 μg ml^−1 (Human erythrocytes; human erythrocytes, 60 μg ml^−1): 0.17%; MIC Candida albicans Gu4 (Candida albicans Gu4): 8 µg/mL; MIC Candida albicans 5674 (Candida albicans 5674): 16 µg/mL; MIC Candida albicans F5 (Candida albicans F5): 16 µg/mL; MIC Candida albicans STY19 (Candida albicans STY19): 16 µg/mL; MIC Candida albicans F2 (Candida albicans F2): 8 µg/mL; MIC Candida albicans B4 (Candida albicans B4): 8 µg/mL; MIC Candida albicans Gu5 (Candida albicans Gu5): 16 µg/mL; Cytotoxicity IC50 HepG2 (HepG2; HepG2, 120 h, MTT): >100 µg/mL; Cytotoxicity IC50 CCRF-CEM (CCRF-CEM; CCRF-CEM, 120 h, MTT): >100 µg/mL
3 | CCN(CC)[C@@H](Cc1ccccc1)C(=O)NC1C(O)C(C)OC(O[C@H]2/C=C/C=C/C=C/C=C/CC/C=C/C=C/[C@H](C)[C@@H](O)[C@@H](C)[C@H](C)OC(=O)C[C@H](O)C[C@H](O)C[C@H](O)CC[C@@H](O)[C@H](O)CC3(O)C[C@H](O)[C@@H](C(=O)O)[C@H](C2)O3)C1O (stereo partly drawn) [Compound N46, N—[L-(N,N-diethyl)phenylalanyl]nystatin A1] | 8 µg/mL | 16 µg/mL (≈ 14.2 µM) | 16 µg/mL (≈ 14.2 µM) | 4 µg/mL | 32 µg/mL (≈ 28.3 µM) | 8 µg/mL (≈ 7.08 µM) | 16 µg/mL (≈ 14.2 µM) | 32 µg/mL (≈ 28.3 µM) | 4 µg/mL | 4 µg/mL (≈ 3.54 µM) | 16 µg/mL (≈ 14.2 µM) | 8 µg/mL | 32 µg/mL (≈ 28.3 µM) | 2.83 µg/mL | 4 µg/mL | 4 µg/mL (≈ 3.54 µM) | 32 µg/mL (≈ 28.3 µM) | 8 µg/mL (≈ 7.08 µM) | 32 µg/mL (≈ 28.3 µM) | 32 µg/mL (≈ 28.3 µM) | Cytotoxicity IC50 LLC-PK1 (LLC-PK1; LLC-PK1, 120 h, MTT): >100 µg/mL; % of hemolysis at the concentration 60 μg ml^−1 (Human erythrocytes): 0.37%; MIC Candida albicans Gu4 (Candida albicans Gu4): 8 µg/mL (≈ 7.08 µM); MIC Candida albicans 5674 (Candida albicans 5674): 32 µg/mL (≈ 28.3 µM); MIC Candida albicans F5 (Candida albicans F5): 16 µg/mL (≈ 14.2 µM); MIC Candida albicans STY19 (Candida albicans STY19): 32 µg/mL (≈ 28.3 µM); MIC Candida albicans F2 (Candida albicans F2): 16 µg/mL (≈ 14.2 µM); MIC Candida albicans B4 (Candida albicans B4): 8 µg/mL (≈ 7.08 µM); MIC Candida albicans Gu5 (Candida albicans Gu5): 16 µg/mL (≈ 14.2 µM); Cytotoxicity IC50 HepG2 (HepG2; HepG2, 120 h, MTT): >100 µg/mL; Cytotoxicity IC50 CCRF-CEM (CCRF-CEM; CCRF-CEM, 120 h, MTT): >100 µg/mL
